From US20140134253A1, “DRY POWDER FOSFOMYCIN/TOBRAMYCIN FORMULATION FOR INHALATION” (Gilead Sciences, Inc., priority 2011, published 2014)

How the values were obtained:
[1] = system: E. coli, Proteus spp., Salmonella spp., Shigella spp., and S. marcescens; conditions: cited from earlier work
[2] = pH of the active ingredients in solution; format: physicochemical
Description: Although simple amino acids and peptides have been used as excipients in pulmonary delivery, they exist as zwitterions with the free amine being protonated by the carboxylic acid. Since fosfomycin disodium and tobramycin base are basic with pHs of approximately 9.7, and 11 in solution, respectively, a formulation combining fosfomycin disodium and tobramycin base would be expected to be outside of the pH range to be tolerable for administration by inhalation to the pulmonary system. However, with the addition of NAL, the pH range in the lung upon administration of the dry powder formulation of the present invention is between about 7 to about 8, and preferably, from about 7.1 to about 7.7. Without the addition of NAL, a dry powder formulation combining fosfomycin disodium and tobramycin in the same molar ratios would be expected to produce a pH in the lung of about 8.2 (when the pH of tobramycin is adjusted with 2.5 molar equivalent of sulfuric acid) and a pH of about 9.1 (without pH adjustment with sulfuric acid).

[3] = cited from earlier work
[4] = aerosol administration; cited from earlier work

## C[C@@H]1O[C@@H]1P(=O)(O)O [Fosfomycin]
[1]
  fosfomycin concentration at which organisms are generally inhibited: ≤ 64 µg/mL

## C[C@@H]1O[C@@H]1P(=O)(O)O [fosfomycin disodium]
[2]
  pH in solution: approximately 9.7

## NC[C@H]1O[C@H](O[C@H]2[C@H](O)[C@@H](O[C@H]3O[C@H](CO)[C@@H](O)[C@H](N)[C@H]3O)[C@H](N)C[C@@H]2N)[C@H](N)C[C@@H]1O [tobramycin, Tobramycin]
[3]; in vivo, po
  oral absorption: poorly absorbed orally
[3]; parenteral administration, excreted by glomerular filtration
  plasma half-life: 1 to 2 h
[2]
  pH in solution: ~11
[4]
  sputum levels: ≥ 1000 µg/mL
